# Columns and labels:
# Format in all cases: in vivo
# [1] = tested on: Abutilon theophrasti; experiment: Pre-emergence herbicidal action against ABUTH; conditions: visual score after 3 weeks vs untreated controls
# In short: (§1)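 Pre-emergence soil-surface spray of formulated compound (WP or EC; 600 to 800 l/ha; 0.2% wetting agent) over seeds sown in sandy loam. After 3 weeks under greenhouse conditions, damage is estimated visually in percent against untreated plants.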
# [2] = tested on: Alopecurus myosuroides; experiment: Pre-emergence herbicidal action against ALOMY; conditions: 80 g/ha; visual score after 3 weeks vs untreated controls
# In short: as §1
# [3] = tested on: Amaranthus retroflexus; experiment: Pre-emergence herbicidal action against AMARE; conditions: visual score after 3 weeks vs untreated controls
# In short: as §1
# [4] = tested on: Avena fatua; experiment: Pre-emergence herbicidal action against AVEFA; conditions: 80 g/ha; visual score after 3 weeks vs untreated controls
# In short: as §1
# [5] = tested on: Echinochloa crus-galli; experiment: Pre-emergence herbicidal action against ECHCG; conditions: 80 g/ha; visual score after 3 weeks vs untreated controls
# In short: as §1
# [6] = tested on: Matricaria inodora; experiment: Pre-emergence herbicidal action against MATIN; conditions: visual score after 3 weeks vs untreated controls
# In short: as §1
# [7] = tested on: Digitaria sanguinalis; experiment: Pre-emergence herbicidal action against DIGSA
# In short: as §1
# [8] = tested on: Setaria viridis; experiment: Pre-emergence herbicidal action against SETVI; conditions: 80 g/ha
# In short: as §1
# [9] = tested on: Veronica persica; experiment: Pre-emergence herbicidal action against VERPE; conditions: 80 g/ha
# In short: as §1
# [10] = tested on: Viola tricolor; experiment: Pre-emergence herbicidal action against VIOTR
# In short: as §1
# [11] = tested on: Abutilon theophrasti; experiment: Post-emergence herbicidal action against ABUTH; conditions: 20 g/ha
# In short: (§2)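 Spray, one-leaf stage: WP or EC compound in water, 600–800 l/ha, 0.2% wetting agent. Plants held about 3 weeks in the greenhouse, then visually rated in percent of kill compared with untreated controls.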
# [12] = tested on: Alopecurus myosuroides; experiment: Post-emergence herbicidal action against ALOMY; conditions: 20 g/ha
# In short: as §2
# [13] = tested on: Amaranthus retroflexus; experiment: Post-emergence herbicidal action against AMARE; conditions: 20 g/ha, visual assessment about 3 weeks after treatment
# In short: as §2
# [14] = tested on: Avena fatua; experiment: Post-emergence herbicidal action against AVEFA; conditions: 20 g/ha, visual assessment about 3 weeks after treatment
# In short: as §2
# [15] = tested on: Echinochloa crus-galli; experiment: Post-emergence herbicidal action against ECHCG; conditions: 20 g/ha, visual assessment about 3 weeks after treatment
# In short: as §2
# [16] = tested on: Matricaria inodora; experiment: Post-emergence herbicidal action against MATIN; conditions: visual assessment about 3 weeks after treatment
# In short: as §2
# [17] = tested on: Digitaria sanguinalis; experiment: Post-emergence herbicidal action against DIGSA
# In short: as §2
# [18] = tested on: Polygonum convolvulus; experiment: Post-emergence herbicidal action against POLCO; conditions: 20 g/ha, visual assessment about 3 weeks after treatment
# Procedure: Seeds of monocotyledonous and dicotyledonous weed and crop plants are laid out in sandy loam soil in wood-fiber pots, covered with soil and cultivated in a greenhouse under good growth conditions. 2 to 3 weeks after sowing, the test plants are treated at the one-leaf stage. The compounds of the invention, formulated in the form of wettable powders (WP) or as emulsion concentrates (EC), are then sprayed onto the green parts of the plants in the form of an aqueous suspension or emulsion at a water application rate equivalent to 600 to 800 l/ha, with addition of 0.2% wetting agent. After the test plants have been left to stand in the greenhouse under optimal growth conditions for about 3 weeks, the action of the preparations is assessed visually in comparison to untreated controls (herbicidal action in percent (%): 100% activity=the plants have died, 0% activity=like control plants). […] The tables below illustrate, in an illustrative manner, the post-emergence herbicidal action of the compounds of the invention, the herbicidal activity being stated in percent.
# [19] = tested on: Setaria viridis; experiment: Post-emergence herbicidal action against SETVI; conditions: 20 g/ha, visual assessment about 3 weeks after treatment
# In short: as §2
# [20] = tested on: Veronica persica; experiment: Post-emergence herbicidal action against VERPE; conditions: 20 g/ha, visual assessment about 3 weeks after treatment
# In short: as §2
# [21] = tested on: Viola tricolor; experiment: Post-emergence herbicidal action against VIOTR
# In short: as §2
smiles,measurement,setting,value
Cc1c(C(=O)Nc2nnnn2C)ccc(C(F)(F)F)c1C(=O)N(C)CC(F)F [Example 1-24],Pre-emergence action against ABUTH,[1]; 20 g/ha,100%
same,Pre-emergence action against ABUTH,[1]; 80 g/ha,100%
same,Pre-emergence action against ALOMY,[2],90%
same,Pre-emergence action against AMARE,[3]; 20 g/ha,100%
same,Pre-emergence action against AMARE,[3]; 80 g/ha,100%
same,Pre-emergence action against AVEFA,[4],90%
same,Pre-emergence action against ECHCG,[5],100%
same,Pre-emergence action against MATIN,[6]; 20 g/ha,90%
same,Pre-emergence action against MATIN,[6]; 80 g/ha,100%
same,Pre-emergence action against DIGSA,[7]; 20 g/ha,100%
same,Pre-emergence action against DIGSA,[7]; 80 g/ha,100%
same,Pre-emergence action against SETVI,[8],100%
same,Pre-emergence action against VERPE,[9],100%
same,Pre-emergence action against VIOTR,[10]; 20 g/ha,80%
same,Pre-emergence action against VIOTR,[10]; 80 g/ha,100%
same,Post-emergence action against ABUTH,[11],80%
same,Post-emergence action against ALOMY,[12],90%
same,Post-emergence action against AMARE in %,[13],90%
same,Post-emergence action against AVEFA in %,[14],80%
same,Post-emergence action against ECHCG in %,[15],80%
same,Post-emergence action against MATIN in %,[16]; 5 g/ha,90%
same,Post-emergence action against MATIN in %,[16]; 20 g/ha,90%
same,Post-emergence action against DIGSA in %,[17]; 5 g/ha,100%
same,Post-emergence action against DIGSA in %,[17]; 20 g/ha,100%
same,Post-emergence action against POLCO in %,[18],100%
same,Post-emergence action against SETVI in %,[19],80%
same,Post-emergence action against VERPE in %,[20],80%
same,Post-emergence action against VIOTR in %,[21]; 5 g/ha,80%
same,Post-emergence action against VIOTR in %,[21]; 20 g/ha,90%
